# Test results published in patent publication US11925643B2, “Toll-like receptor 4 (TLR4) inhibitors and use thereof” (MOR RESEARCH APPLICATIONS LTD., priority 2018, dated 2024).
# Residues, ends and D or L forms follow the SMILES beside them.
# How the values were obtained:
# [1] = molecular target: T1, TLR4 (Homo sapiens, UniProt O00206); assay: FACS analysis of TLR4 expressed by macrophages exposed to LPS; assay type: cell-based; conditions: 10 μM
# T1 construct: FACS analysis to test the expression of TLR4 protein by macrophages under LPS treatment; endogenous in cells; host or cells: human peripheral-blood monocytes differentiated into macrophages with M-CSF
# T1 sequence (O00206 24-839): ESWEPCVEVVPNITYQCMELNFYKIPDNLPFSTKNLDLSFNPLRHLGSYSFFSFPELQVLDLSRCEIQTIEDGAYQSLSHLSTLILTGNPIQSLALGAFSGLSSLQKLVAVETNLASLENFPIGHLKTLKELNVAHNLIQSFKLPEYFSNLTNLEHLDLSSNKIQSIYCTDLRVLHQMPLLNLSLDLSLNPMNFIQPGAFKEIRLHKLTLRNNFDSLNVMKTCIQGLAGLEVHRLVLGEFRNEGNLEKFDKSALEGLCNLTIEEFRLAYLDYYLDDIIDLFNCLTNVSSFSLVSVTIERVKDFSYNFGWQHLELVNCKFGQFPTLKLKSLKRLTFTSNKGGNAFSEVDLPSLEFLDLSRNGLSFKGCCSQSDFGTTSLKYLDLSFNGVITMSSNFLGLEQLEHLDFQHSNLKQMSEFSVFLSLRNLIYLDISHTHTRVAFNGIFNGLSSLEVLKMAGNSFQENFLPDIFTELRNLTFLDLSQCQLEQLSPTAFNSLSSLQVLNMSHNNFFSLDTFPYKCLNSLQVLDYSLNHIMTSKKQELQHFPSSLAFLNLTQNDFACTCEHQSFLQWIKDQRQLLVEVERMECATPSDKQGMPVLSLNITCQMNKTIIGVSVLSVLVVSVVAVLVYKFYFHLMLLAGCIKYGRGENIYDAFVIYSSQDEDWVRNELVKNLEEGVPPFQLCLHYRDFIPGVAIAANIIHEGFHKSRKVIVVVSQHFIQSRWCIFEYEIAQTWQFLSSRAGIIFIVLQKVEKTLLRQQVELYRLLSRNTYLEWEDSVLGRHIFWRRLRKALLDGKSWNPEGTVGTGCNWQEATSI
# Description: Flow cytometry is an analytical cell-biology technique that utilizes light to count and profile cells in a heterogenous fluid mixture. Flow cytometry analysis was used to evaluate binding of antibodies to TLR4 presenting cells. In this assay, an anti-TLR4 antibody was added to a monocytes suspension and cells which bound the antibody were visualized by a fluorescently labeled secondary antibody that bound to the anti-TLR4 antibody (Ab). Accordingly, samples were first “labeled” with the anti-TLR4 antibody, then incubated with Fluor® 488 conjugated to a secondary Ab for TLR4 (CD284) positive cells visualization.
# In order to confirm the specificity of binding, and further in order to correct for non-specific or background staining, isotypes control mouse IgGs were added to cell suspensions at the same concentration as the anti-TLR4 Abs. To deduct the non-specific or background staining from the positive staining due to direct Ab binding to the antigen, the level of background staining was assessed by the use of the same fluorochrome as that used for staining the anti-TLR4 Ab.
# Peripheral blood (30 ml) was obtained for the isolation of monocytes. Monocytes were purified by density gradient centrifugation as described above, and/or by adherence to plastic in RPMI 1640 medium supplemented with 10% fetal bovine serum (FBS) and antibiotics. Peripheral blood mononuclear cells (PBMCs) (10^6 cells/ml) were first seeded into 24-well plates (0.5 ml per well), after 2 hours, non-adherent cells were removed by several washes with warm PBS.
# Monocytes freshly isolated either by density gradient centrifugation by adherence differentiated into macrophages in complete RPMI 1640 medium supplemented with human recombinant macrophage colony stimulating factor (100 ng/ml) for 6 days. To confirm macrophage cell lineage, direct immunostaining was performed with an antibody directed against CD11b/mac1 (Biolegend® Inc., San Diego, Calif., USA). Eighty percent (80%) of positive staining was observed by flow cytometry analysis. The proportion of TLR4 in this separated cell fraction was examined by FACS analysis using, as isotype control, mouse IgG2a IsoControl (eBioscience™ #53-4724-80), and mouse anti-human CD284 Alexa Fluor® 488 Clone FITA125 secondary Ab (Isotype IgG2a. eBioscience™ #53-9917-41), which recognizes the human TLR4 (also known as CD284) cell surface antigen. Cells were analyzed in a BC Gallios Flow Cytometer (Beckman Coulter, Indianapolis Ind., USA) and were initially gated on the basis of forward and side scatter characteristics. Kaluza Software was used to analyze the results. Results are expressed as mean fluorescence intensity (MFI) and also as normalized to control. […]
# [2] = system: TLR2 mRNA; assay: TLR2 mRNA level by RT-qPCR in hypoxic cardiomyocytes (negative control); assay type: cell-based; conditions: hypoxic conditions
# Description: Real-time RT-PCR experiments were performed in duplicates on an ABI 7900 instrument (Applied Biosystems™) using Taqman™ Master Mix (Applied Biosystems™). The average threshold cycles (Ct) of the duplicates were used to calculate the relative expression levels of the following genes: TLR4 (Applied Biosystems™ assay primer ID: Mm00569848_m1 Tlr4), TLR2 (assay primer ID: Mm01769726_m1 Tlr2), TNF-α (assay primer ID: Mm00443260_g1 Tnf) and IL-1β (assay primer ID: Mm00434228_m1 II1b) in vitro and in vivo following hypoxia or ischemia, respectively. The reference gene was TBP and the primer used was derived from mouse TATA-box binding protein (Applied Biosystems™ assay primer ID: Mm00446973_m1 Tbp). Amounts of TLR2, TLR4, TNF-α and IL-1β mRNAs in each sample were calculated relative to TBP mRNA, based on the corresponding Cts, as Relative Quantity (RQ) values, and normalized taking as 1 a randomly selected sample of the control group (TBP mRNA). Calculation were performed using the Applied Biosystems Analysis™ software (StepOnePlus V2.2.2). All mRNA scores are presented in arbitrary units.
# Next, peptidomimetics of SEQ ID NOs:1 and 2 were tested for their ability to affect the expression of TLR4. The level of TLR4 mRNA was measured by real-time reverse transcriptase polymerase chain reaction (RT-qPCR) method as described in Materials and Methods. […]
# [3] = system: C57BL mice; assay: Survival after ischemia induction (MI mice model); assay type: in vivo; conditions: 0.3 mg/kg 1 hour after ischemia induction; 7 days; 12 mice
# Description: Mice were anesthetized (with a mixture of 100 mg/kg ketamine and 10 mg/kg xylazine), intubated and ventilated with air until spontaneous breathing commenced. The left anterior descending artery (LAD) was ligated with one single stitch, forming an ischemia that can be observed almost immediately. By closing the LAD, no further blood flow is permitted in that area, while the surrounding myocardial tissue is almost not affected. This surgical procedure imitates the pathobiological and pathophysiological aspects occurring in infarction-related myocardial ischemia.
# Real time reverse transcriptase PCR (RT-qPCR) was conducted to identify the effect of a disclosed decoy peptide on TLR-mediated induction of the inflammatory cytokine TNF-α. The effect of an exemplary decoy peptide PM6 (0.3 mg/kg; administered 1 hour after MI induction) on TNF-α mRNA expression in mice myocardium was assessed 24 h and 7 days after ischemia induction.
# On the other hand, 5 out of 12 untreated mice died, which accounts for a survival rate of 58% after ischemia for the untreated mice.
Structure (SMILES),"TLR4 expression level ([1]; 30 min before LPS (100 ng/ml or 20 μg/ml), 4 hours)","lowering the expression of TLR4 in the presence of LPS, compared with SEQ ID NO: 25 ([1]; low and high LPS)",TLR2 mRNA expression level [2],survival rate [3]
"CC[C@H](C)[C@H](NC(C)=O)C(=O)N[C@H](C(=O)N[C@@H](Cc1ccccc1)C(=O)N[C@@H](C)C(N)=O)C(C)C [SEQ ID NO:1, (2S,3S)-2-acetamido-N-((S)-1-(((S)-1-(((S)-1-amino-1-oxopropan-2-yl)amino)-1-oxo-3-phenylpropan-2-yl)amino)-3-methyl-1-oxobutan-2-yl)-3-methylpentanamide] (Ac-IVFA-NH2)",toward baseline levels,more effective,relatively unaffected,–
"CCCCCCCCNc1nc(=O)n(Cc2ccccc2)cc1C [PM6, 1-benzyl-5-methyl-4-(octylamino)pyrimidin-2(1H)-one]",–,–,–,100%
